From BindingDB's records for doi:10.1016/j.chembiol.2009.09.012 (University of California Irvine, 2009)
pIC50: −log10 of the molar value.

Molecular target: T1, Monoglyceride lipase (Rattus norvegicus, UniProt Q8R431)
T1 sequence (Q8R431 whole entry): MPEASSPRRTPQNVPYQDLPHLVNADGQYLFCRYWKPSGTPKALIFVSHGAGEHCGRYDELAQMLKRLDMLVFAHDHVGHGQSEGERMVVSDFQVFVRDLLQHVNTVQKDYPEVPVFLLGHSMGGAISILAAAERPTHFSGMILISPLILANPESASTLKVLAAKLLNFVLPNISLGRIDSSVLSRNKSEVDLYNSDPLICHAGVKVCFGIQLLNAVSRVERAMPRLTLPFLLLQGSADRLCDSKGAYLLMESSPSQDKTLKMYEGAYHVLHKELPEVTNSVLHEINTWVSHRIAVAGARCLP
Assay: Enzyme Assay
Conditions: 37 °C
Method: Purified recombinant rat MGL was prepared and enzyme activity was assayed.

SMILES	pIC50
C=c1c(O)c(O)cc2c1=CC=C1[C@@]2(C)CC[C@@]2(C)[C@@H]3C[C@](C)(C(=O)O)CC[C@]3(C)CC[C@]12C	5.80
Cc1c(O)c(O)cc2c1CC=C1[C@@]2(C)CC[C@@]2(C)C3C[C@](C)(C(=O)O)CC[C@]3(C)CC[C@]12C (stereo not given in full) [Dihydrocelastrol]	4.82
CC(=O)Oc1cc2c(c(C)c1OC(C)=O)CC=C1[C@@]2(C)CC[C@@]2(C)[C@@H]3C[C@](C)(C(=O)O)CC[C@]3(C)CC[C@]12C [Dihydrocelastryl diacetate]	4.82
C=c1c(O)c(O)cc2c1=CC=C1[C@@]2(C)CC[C@@]2(C)C3C[C@](C)(C(=O)OC)CC[C@]3(C)CC[C@]12C (stereo not given in full) [Pristimerin]	7.03
COC(=O)[C@]1(C)CC[C@]2(C)CC[C@]3(C)C4=CCc5c(cc(O)c(O)c5C)[C@]4(C)CC[C@@]3(C)C2C1 (stereo not given in full) [Pristimerol]	5.40
